Assay results reported in patent US11319298B2 (Merck Sharp & Dohme Corp., priority 2016, dated 2022).
pEC50: −log10 of the molar value.

What follows are molecules tested against T1, human M4 muscarinic acetylcholine receptor (Homo sapiens, UniProt P08173) (assay: human FLIPR-based M4 PAM assay, CHO-K1 cells stably transfected with human M4 receptor and chimeric G-protein Gαqi5). Conditions: inflection point (IP) of dose response curve; acetylcholine added at 20% of maximum response; CHO-K1 human M4/Gαqi5, FLIPR Tetra.
T1 construct: expressed in transfected cells; host or cells: CHO-K1
T1 sequence (P08173 1-479): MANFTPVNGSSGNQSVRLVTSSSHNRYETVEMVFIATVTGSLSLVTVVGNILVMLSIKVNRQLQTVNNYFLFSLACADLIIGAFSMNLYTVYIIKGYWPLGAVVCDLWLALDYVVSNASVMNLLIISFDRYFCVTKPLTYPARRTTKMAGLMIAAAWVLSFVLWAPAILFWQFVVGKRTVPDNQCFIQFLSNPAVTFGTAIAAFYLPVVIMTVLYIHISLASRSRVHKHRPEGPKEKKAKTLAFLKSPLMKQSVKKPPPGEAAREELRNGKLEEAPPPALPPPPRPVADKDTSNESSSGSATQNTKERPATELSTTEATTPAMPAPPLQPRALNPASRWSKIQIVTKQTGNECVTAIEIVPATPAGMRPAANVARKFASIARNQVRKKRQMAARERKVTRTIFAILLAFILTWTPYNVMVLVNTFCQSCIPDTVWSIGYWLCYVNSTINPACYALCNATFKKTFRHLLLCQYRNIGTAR
Type: cell-based
Outline: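 CHO-K1 cells were loaded with calcium dye at 37 °C for ~1 h. Fluorescence (ex 470–495/em 515–575 nm) was read for 4 min after test compound at increasing concentrations, then 3.5 min after acetylcholine at an EC20; sometimes a third addition at EC70 followed. The value is the inflection point of a 4-parameter logistic fit.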

| SMILES | pEC50 |
| --- | --- |
| COc1ccc(OC2CCN(c3ncnc(N4Cc5cccnc5C4)c3C)CC2)cn1 [Example 232, 6-(6-(4-((6-methoxypyridin-3-yl)oxy)piperidin-1-yl)-5-methylpyrimidin-4-yl)-6,7-dihydro-5H-pyrrolo[3,4-b]pyridine] | 5.83 |
| COC(=O)c1cc(C)c(N2CCC(Oc3ccc4c(c3)COC4)CC2)nc1Cl [Example 267, Methyl 2-chloro-6-(4-((1,3-dihydroisobenzofuran-5-yl)oxy)piperidin-1-yl)-5-methylnicotinate] | 5.59 |
| COc1ccc(OC2CCN(c3nnc(C(=O)Nc4ccc(CC(F)(F)F)cc4)cc3C)CC2)cn1 [Example 190, 6-{4-[(6-methoxypyridin-3-yl)oxy]piperidin-1-yl}-5-methyl-N-[4-(2,2,2-trifluoroethyl)phenyl]pyridazine-3-carboxamide] | 5.70 |
| CCCCc1ncnc(N2CCC(Oc3ccc(OC)nc3)CC2)c1C [Example 256, 4-butyl-6-(4-((6-methoxypyridin-3-yl)oxy)piperidin-1-yl)-5-methylpyrimidine] | 5.58 |
| Cc1c(C#N)nc(CO)nc1N1CCC(Oc2ccc3c(c2)C(=O)OC3)CC1 [Example 260, 2-(hydroxymethyl)-5-methyl-6-(4-((3-oxo-1,3-dihydroisobenzofuran-5-yl)oxy)piperidin-1-yl)pyrimidine-4-carbonitrile] | 5.59 |
| COc1ccc(OC2CCN(c3ncnc(N4CCC(F)(F)C4)c3C)CC2)cn1 [Example 231, 4-(3,3-difluoropyrrolidin-1-yl)-6-(4-((6-methoxypyridin-3-yl)oxy)piperidin-1-yl)-5-methylpyrimidine] | 5.96 |
| COc1ccc(OC2CCN(c3nc(C(=O)NC4CCc5ncccc5C4)nc(Cl)c3C)CC2)cn1 (stereo not shown) [Example 218, 4-chloro-6-(4-((6-methoxypyridin-3-yl)oxy)piperidin-1-yl)-5-methyl-N-(5,6,7,8-tetrahydroquinolin-6-yl)pyrimidine-2-carboxamide] | 5.98 |
| Cc1c(Cl)nc(CO)nc1N1CCC(Oc2ccc3ncn(C)c(=O)c3c2)CC1 [Example 6, 6-((1-(6-chloro-2-(hydroxymethyl)-5-methylpyrimidin-4-yl)piperidin-4-yl)oxy)-3-methylquinazolin-4(3H)-one] | 6.01 |
| COc1ccc(OC2CCN(c3nnc(C(=O)NCc4ccccc4C#N)cc3C)CC2)cn1 [Example 178, N-(2-cyanobenzyl)-6-{4-[(6-methoxypyridin-3-yl)oxy]piperidin-1-yl}-5-methylpyridazine-3-carboxamide] | 6.14 |
| COc1ccc(OC2CCN(c3nnc(C(=O)NC4Cc5ccccc5C4)cc3C)CC2)cn1 [Example 177, N-(2,3-dihydro-1H-inden-2-yl)-6-{4-[(6-methoxypyridin-3-yl)oxy]piperidin-1-yl}-5-methylpyridazine-3-carboxamide] | 6.16 |
| COc1ccc([C@H](C)NC(=O)c2cc(C)c(N3CCC(Oc4ccc(OC)nc4)CC3)nn2)cc1 [Example 182, N-[(1S)-1-(4-methoxyphenyl)ethyl]-6-{4-[(6-methoxypyridin-3-yl)oxy]piperidin-1-yl}-5-methylpyridazine-3-carboxamide] | 6.05 |
| COC1CCN(c2nnc(C(=O)NCc3ccncc3)cc2C)CC1 [Example 7, 6-(4-methoxypiperidin-1-yl)-5-methyl-N-(pyridin-4-ylmethyl)pyridazine-3-carboxamide] | 5.90 |
| COc1ccc(OC2CCN(c3nc(C(=O)NCc4ccccc4Cl)nc(Cl)c3C)CC2)cn1 [Example 219, 4-chloro-N-(2-chlorobenzyl)-6-(4-((6-methoxypyridin-3-yl)oxy)piperidin-1-yl)-5-methylpyrimidine-2-carboxamide] | 5.96 |
| COc1ccc(OC2CCN(c3ncnc(-c4ccoc4)c3C)CC2)cn1 [Example 252, 4-(furan-3-yl)-6-(4-((6-methoxypyridin-3-yl)oxy)piperidin-1-yl)-5-methylpyrimidine] | 5.77 |
| COc1ccc(OC2CCN(c3nc(SC)ncc3C#N)CC2)cc1 [Example 95, 4-(4-(4-methoxyphenoxy)piperidin-1-yl)-2-(methylthio)pyrimidine-5-carbonitrile] | 6.10 |

The next molecules have a higher pEC50 than those just listed; values first:

| pEC50 | SMILES |
| --- | --- |
| 7.24 | COc1ccc(OC2CCN(c3nnc(C(=O)N[C@@H]4CCc5ncccc5C4)cc3C)CC2)cn1 [Example 141A, (R)-6-(4-((6-methoxypyridin-3-yl)oxy)piperidin-1-yl)-5-methyl-N-(5,6,7,8-tetrahydroquinolin-6-yl)pyridazine-3-carboxamide] |
| 6.66 | Cc1c(Cl)nc(CO)nc1N1CCC(Oc2ccc3c(c2)NCCC3)CC1 [Example 35, (4-chloro-5-methyl-6-(4-((1,2,3,4-tetrahydroquinolin-7-yl)oxy)piperidin-1-yl)pyrimidin-2-yl)methanol] |
| 6.34 | Cc1c(-c2cccnc2)ncnc1N1CCC(Oc2cccc(C#N)c2)CC1 [Example 244, 3-((1-(5-methyl-6-(pyridin-3-yl)pyrimidin-4-yl)piperidin-4-yl)oxy)benzonitrile] |
| 6.73 | COc1ccc(OC2CCN(c3nnc(C(=O)NCCn4ccnn4)cc3C)CC2)cn1 [Example 142, 6-{4-[(6-methoxypyridin-3-yl)oxy]piperidin-1-yl}-5-methyl-N-[2-(1H-1,2,3-triazol-1-yl)ethyl]pyridazine-3-carboxamide] |
| 7.48 | Cc1c(Cl)nc(CO)nc1N1CCC(Oc2ccc3c(c2)CCCN3)CC1 [Example 93, (4-chloro-5-methyl-6-(4-((1,2,3,4-tetrahydroquinolin-6-yl)oxy)piperidin-1-yl)pyrimidin-2-yl)methanol] |
| 6.97 | Cc1nc(Cl)c(C)c(N2CCC(Oc3ccc4nn(C)cc4c3)CC2)n1 [Example 67, 5-((1-(6-chloro-2,5-dimethypyrimidin-4-yl)piperidin-4-yl)oxy)-2-methyl-2H-indazole] |
| 6.53 | Cc1cc(C(=O)NC2CCc3cccnc3C2)nnc1N1CCC(Oc2cccc(C#N)c2)CC1 (stereo not shown) [Example 160, 6-[4-(3-cyanophenoxy)piperidin-1-yl]-5-methyl-N-(5,6,7,8-tetrahydroquinolin-7-yl)pyridazine-3-carboxamide] |
| 6.28 | COc1ccc(OC2CCN(c3nnc(C(=O)N[C@H]4CCc5ccccc5C4)cc3C)CC2)cn1 [Example 165B, (S)-6-{4-[(6-methoxypyridin-3-yl)oxy]piperidin-1-yl}-5-methyl-N-(1,2,3,4-tetrahydronapthalen-2-yl)pyridazine-3-carboxamide] |
| 6.37 | CCc1ncnc(N2CCC(Oc3cccc(C#N)c3)CC2)c1C [Example 261, 3-((1-(6-Ethyl-5-methylpyrimidin-4-yl)piperidin-4-yl)oxy)benzonitrile] |
| 6.49 | Cc1c(Cl)nc(CO)nc1N1CCC(Oc2ccc3c(c2)C(=O)N(C)CC3)CC1 [Example 41, 7-((1-(6-chloro-2-(hydroxymethyl)-5-methylpyrimidin-4-yl)piperidin-4-yl)oxy)-2-methyl-3,4-dihdyroisoquinolin-1(2H)-one] |
| 6.53 | Cc1ncc(C)c(N2CC[C@H](Oc3cccc(C#N)c3)[C@H](F)C2)n1 [Example 81, 3-(((3R,4S)-1-(2,5-dimethylpyrimidin-4-yl)-3-fluoropiperidin-4-yl)oxy)benzonitrile] |
| 6.75 | COc1ncc(OC2CCN(c3nnc(C(=O)NCc4ccncc4)cc3C)CC2)cc1F [Example 140, 6-{4-[(5-fluoro-6-methoxypyridin-3-yl)oxy]piperidin-1-yl}-5-methyl-N-(pyridin-4-ylmethyl)pyridazine-3-carboxamide] |
| 7.36 | COc1ccc(OC2CCN(c3nc(CO)nc(Cl)c3C)CC2)cc1C#N [Example 48, 5-((1-(6-chloro-2-(hydroxymethyl)-5-methylpyrimidin-4-yl)piperidin-4-yl)oxy)-2-methoxybenzonitrile] |
| 6.31 | COC(=O)c1cc(C)c(N2CCC(Oc3ccc(OC)nc3)CC2)nc1C#N [Example 45, methyl 2-cyano-6-(4-((6-methoxypyridin-3-yl)oxy)piperidin-1-yl)-5-methylnicotinate] |
| 6.57 | Cc1ccc(OC2CCN(c3nnc(C(=O)NCc4ccncc4)cc3C)CC2)cc1Cl [Example 156, 6-[4-(3-chloro-4-methylphenoxy)piperidin-1-yl]-5-methyl-N-(pyridin-4-ylmethyl)pyridazine-3-carboxamide] |
| 7.21 | COc1ccc(OC2CCN(c3ncnc(Cl)c3C)CC2)cc1 [Example 57, 4-chloro-6-(4-(4-methoxyphenoxy)piperidin-1-yl)-5-methypyrimidine] |
| 6.85 | Cc1c(Cl)nc(CO)nc1N1CCC(Oc2ccc3c(c2)NC(=O)CC3)CC1 [Example 30, 7-((1-(6-chloro-2-(hydroxymethyl)-5-methylpyrimidin-4-yl)piperidin-4-yl)oxy)-3,4-dihydroquinolin-2(1H)-one] |
| 6.49 | Cc1c(Cl)nc(CO)nc1N1CCC(Oc2cccc(S(C)(=O)=O)c2)CC1 [Example 42, (4-chloro-5-methyl-6-(4-(3-(methylsulfonyl)phenoxy)piepridin-1-yl)pyrimidin-2-yl)methanol] |
| 7.01 | CCc1cc(C(=O)NCc2ccncc2)nnc1N1CCC(Oc2ccc(OC)nc2)CC1 [Example 205, 5-Ethyl-6-(4-((6-methoxypyridin-3-yl)oxy)piperidin-1-yl)-N-(pyridin-4-ylmethyl)pyridazine-3-carboxamide] |
